{
  "source": "patent US20100041089A1",
  "about": "“IMPROVED METHOD FOR DETECTING CHEMICAL […]” (priority 2006, published 2010)",
  "system": "yeast genes (expressed mRNA)",
  "assay": "DNA chip measurement of expressed mRNA of yeast genes after culture with a toxic chemical substance",
  "type": "cell-based, Saccharomyces cerevisiae S288C",
  "procedure,_shortened": "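Yeast S288C, YPD 25° C; toxicant at log phase, 2 h, sublethal growth-inhibiting conc.; no-chemical control. Hot SDS/acetate RNA extraction, oligo-dT mRNA, Cy3/Cy5-dUTP RT. Whole-genome chip, 65° C >12 h. Readout: treated/control intensity ratio, ≥2 significant.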",
  "data": [
    {"smiles": "CN(C)C(=S)SSC(=S)N(C)C", "note": "[(10), Tetramethylthiuram disulfide]", "values": [
      {"measurement": "The level of expressed mRNA in the presence of chemical substance/The level of expressed mRNA in the absence of chemical substance", "setting": "yeast gene YJL152W, cultured two hours with substance", "value": 1.0},
      {"measurement": "The level of expressed mRNA in the presence of chemical substance/The level of expressed mRNA in the absence of chemical substance", "setting": "yeast gene YJL161W, cultured two hours with substance", "value": 2.1},
      {"measurement": "The level of expressed mRNA in the presence of chemical substance/The level of expressed mRNA in the absence of chemical substance", "setting": "yeast gene YJL171C, cultured two hours with substance", "value": 1.7},
      {"measurement": "The level of expressed mRNA in the presence of chemical substance/The level of expressed mRNA in the absence of chemical substance", "setting": "yeast gene YJL186W, cultured two hours with substance", "value": 0.5},
      {"measurement": "The level of expressed mRNA in the presence of chemical substance/The level of expressed mRNA in the absence of chemical substance", "setting": "yeast gene YJR008W, cultured two hours with substance", "value": 1.9},
      {"measurement": "The level of expressed mRNA in the presence of chemical substance/The level of expressed mRNA in the absence of chemical substance", "setting": "yeast gene YJR010W", "value": 11.1},
      {"measurement": "The level of expressed mRNA in the presence of chemical substance/The level of expressed mRNA in the absence of chemical substance", "setting": "yeast gene YJR054W, cultured two hours with substance", "value": 0.6},
      {"measurement": "The level of expressed mRNA in the presence of chemical substance/The level of expressed mRNA in the absence of chemical substance", "setting": "yeast gene YJR155W", "value": 18.8},
      {"measurement": "The level of expressed mRNA in the presence of chemical substance/The level of expressed mRNA in the absence of chemical substance", "setting": "yeast gene YJR155W, cultured for two hours with substance", "value": 18.8},
      {"measurement": "The level of expressed mRNA in the presence of chemical substance/The level of expressed mRNA in the absence of chemical substance", "setting": "yeast gene YKL070W", "value": 11.0},
      {"measurement": "The level of expressed mRNA in the presence of chemical substance/The level of expressed mRNA in the absence of chemical substance", "setting": "yeast gene YKL071W, cultured two hours with substance", "value": 109.2},
      {"measurement": "The level of expressed mRNA in the presence of chemical substance/The level of expressed mRNA in the absence of chemical substance", "setting": "yeast gene YKL086W, cultured two hours with substance", "value": 20.5},
      {"measurement": "The level of expressed mRNA in the presence of chemical substance/The level of expressed mRNA in the absence of chemical substance", "setting": "yeast gene YKL151C, cultured two hours with substance", "value": 3.5},
      {"measurement": "The level of expressed mRNA in the presence of chemical substance/The level of expressed mRNA in the absence of chemical substance", "setting": "yeast gene YKL153W, cultured two hours with substance", "value": 1.4},
      {"measurement": "The level of expressed mRNA in the presence of chemical substance/The level of expressed mRNA in the absence of chemical substance", "setting": "yeast gene YKL195W, cultured two hours with substance", "value": 2.1},
      {"measurement": "The level of expressed mRNA in the presence of chemical substance/The level of expressed mRNA in the absence of chemical substance", "setting": "yeast gene YKR076W", "value": 43.1},
      {"measurement": "The level of expressed mRNA in the presence of chemical substance/The level of expressed mRNA in the absence of chemical substance", "setting": "yeast gene YKR091W, cultured two hours with substance", "value": 1.6},
      {"measurement": "The level of expressed mRNA in the presence of chemical substance/The level of expressed mRNA in the absence of chemical substance", "setting": "yeast gene YLL060C (detoxification protein gene)", "value": 23.2},
      {"measurement": "The level of expressed mRNA in the presence of chemical substance/The level of expressed mRNA in the absence of chemical substance", "setting": "yeast gene YLL060C (stress protein genes)", "value": 23.2},
      {"measurement": "The level of expressed mRNA in the presence of chemical substance/The level of expressed mRNA in the absence of chemical substance", "setting": "yeast gene YLR054C, cultured two hours with substance", "value": 1.1},
      {"measurement": "The level of expressed mRNA in the presence of chemical substance/The level of expressed mRNA in the absence of chemical substance", "setting": "yeast gene YLR108C", "value": 10.4},
      {"measurement": "The level of expressed mRNA in the presence of chemical substance/The level of expressed mRNA in the absence of chemical substance", "setting": "yeast gene YLR149C, cultured two hours with substance", "value": 5.2},
      {"measurement": "The level of expressed mRNA in the presence of chemical substance/The level of expressed mRNA in the absence of chemical substance", "setting": "yeast gene YLR152C, cultured two hours with substance", "value": 1.1},
      {"measurement": "The level of expressed mRNA in the presence of chemical substance/The level of expressed mRNA in the absence of chemical substance", "setting": "yeast gene YLR194C, cultured two hours with substance", "value": 1.1},
      {"measurement": "The level of expressed mRNA in the presence of chemical substance/The level of expressed mRNA in the absence of chemical substance", "setting": "yeast gene YLR217W, cultured two hours with substance", "value": 8.2},
      {"measurement": "The level of expressed mRNA in the presence of chemical substance/The level of expressed mRNA in the absence of chemical substance", "setting": "yeast gene YLR324W, cultured two hours with substance", "value": 1.4},
      {"measurement": "The level of expressed mRNA in the presence of chemical substance/The level of expressed mRNA in the absence of chemical substance", "setting": "yeast gene YLR350W, cultured two hours with substance", "value": 1.4},
      {"measurement": "The level of expressed mRNA in the presence of chemical substance/The level of expressed mRNA in the absence of chemical substance", "setting": "yeast gene YLR387C, cultured two hours with substance", "value": 3.0},
      {"measurement": "The level of expressed mRNA in the presence of chemical substance/The level of expressed mRNA in the absence of chemical substance", "setting": "yeast gene YLR460C, cultured two hours with substance", "value": 31.6},
      {"measurement": "The level of expressed mRNA in the presence of chemical substance/The level of expressed mRNA in the absence of chemical substance", "setting": "yeast gene YML117W, cultured two hours with substance", "value": 1.4},
      {"measurement": "The level of expressed mRNA in the presence of chemical substance/The level of expressed mRNA in the absence of chemical substance", "setting": "yeast gene YML131W", "value": 17.7},
      {"measurement": "The level of expressed mRNA in the presence of chemical substance/The level of expressed mRNA in the absence of chemical substance", "setting": "yeast gene YMR009W, cultured two hours with substance", "value": 2.2},
      {"measurement": "The level of expressed mRNA in the presence of chemical substance/The level of expressed mRNA in the absence of chemical substance", "setting": "yeast gene YMR034C, cultured two hours with substance", "value": 2.7},
      {"measurement": "The level of expressed mRNA in the presence of chemical substance/The level of expressed mRNA in the absence of chemical substance", "setting": "yeast gene YMR067C, cultured two hours with substance", "value": 3.5},
      {"measurement": "The level of expressed mRNA in the presence of chemical substance/The level of expressed mRNA in the absence of chemical substance", "setting": "yeast gene YMR090W, cultured two hours with substance", "value": 6.1},
      {"measurement": "The level of expressed mRNA in the presence of chemical substance/The level of expressed mRNA in the absence of chemical substance", "setting": "yeast gene YMR095C, cultured two hours with substance", "value": 1.4},
      {"measurement": "The level of expressed mRNA in the presence of chemical substance/The level of expressed mRNA in the absence of chemical substance", "setting": "yeast gene YMR097C, cultured two hours with substance", "value": 2.1},
      {"measurement": "The level of expressed mRNA in the presence of chemical substance/The level of expressed mRNA in the absence of chemical substance", "setting": "yeast gene YMR102C, cultured two hours with substance", "value": 2.6},
      {"measurement": "The level of expressed mRNA in the presence of chemical substance/The level of expressed mRNA in the absence of chemical substance", "setting": "yeast gene YMR107W, cultured two hours with substance", "value": 17.1},
      {"measurement": "The level of expressed mRNA in the presence of chemical substance/The level of expressed mRNA in the absence of chemical substance", "setting": "yeast gene YMR140W, cultured two hours with substance", "value": 2.3},
      {"measurement": "The level of expressed mRNA in the presence of chemical substance/The level of expressed mRNA in the absence of chemical substance", "setting": "yeast gene YMR180C, cultured two hours with substance", "value": 2.2},
      {"measurement": "The level of expressed mRNA in the presence of chemical substance/The level of expressed mRNA in the absence of chemical substance", "setting": "yeast gene YMR184W, cultured two hours with substance", "value": 0.9},
      {"measurement": "The level of expressed mRNA in the presence of chemical substance/The level of expressed mRNA in the absence of chemical substance", "setting": "yeast gene YMR191W, cultured two hours with substance", "value": 3.5},
      {"measurement": "The level of expressed mRNA in the presence of chemical substance/The level of expressed mRNA in the absence of chemical substance", "setting": "yeast gene YMR251W, cultured two hours with substance", "value": 11.6},
      {"measurement": "The level of expressed mRNA in the presence of chemical substance/The level of expressed mRNA in the absence of chemical substance", "setting": "yeast gene YMR295C, cultured two hours with substance", "value": 0.8},
      {"measurement": "The level of expressed mRNA in the presence of chemical substance/The level of expressed mRNA in the absence of chemical substance", "setting": "yeast gene YMR316W, cultured two hours with substance", "value": 3.0},
      {"measurement": "The level of expressed mRNA in the presence of chemical substance/The level of expressed mRNA in the absence of chemical substance", "setting": "yeast gene YMR322C, cultured two hours with substance", "value": 10.3},
      {"measurement": "The level of expressed mRNA in the presence of chemical substance/The level of expressed mRNA in the absence of chemical substance", "setting": "yeast gene YNL044W, cultured two hours with substance", "value": 0.8},
      {"measurement": "The level of expressed mRNA in the presence of chemical substance/The level of expressed mRNA in the absence of chemical substance", "setting": "yeast gene YNL074C, cultured two hours with substance", "value": 2.0}
    ]}
  ]
}
